From patent US7230094B2, “Neutral sphingomyelinase antisense ribozyme and uses thereof” (priority 2001, dated 2007)

Legend:
Format in all cases: cell-based, human
[1] = test system: ceramide production by N-SMase; assay: Ceramide level, modified diacylglycerol kinase assay; details: sham-transfected cells stimulated with TNF-α and Fas-L
MG-63 cells [2] = assay: Apoptosis by DAPI staining and counting of apoptotic cells; details: for Increase in apoptosis assessed by DAPI staining: sham-transfected cells; for Increase in apoptosis compared to untreated cells: N-SMase-deficient (ribozyme) cells treated with C2 ceramide
Procedure: FIG. 6 depicts a quantitative analysis of the effects of TNF-α, C2-Ceramide and Fas-ligand on apoptosis in mutant (CC) and WT (MG-63) cells, as well as wild type/mock transfected cells. Cells were grown on glass cover slips and incubated for 24 hours with TNF-α (20 ng/ml), cell-permeable ceramide (C2-Ceramide) (10 ng/ml) or Fas-L (1 ng/ml). Cells were fixed and stained with DAPI and photographed at 50× magnification. Apoptotic cells were counted using a hemocytometer. The basal levels of apoptotic cells were: MG-63 (3%); L-3 (3%); and CC (2.8%). Errors bars indicate ±S.D. (N=2).
WT (MG-63), LacZ (L-3) and mutant (CC) cells were grown on glass cover slips and incubated for 24 hr with TNF-α (20 ng/ml), cell-permeable ceramide (C2-ceramide) (10 ng/ml) or Fas-L (1 ng/ml). Cells were fixed and stained with DAPI stain and photographed (50×). Apoptotic cells were counted using a hemocytometer and compared to total cell counts per field. Basal levels of apoptosis were 3% untransfected, 3% control transfection, and 2.8% ribozyme transfection.

[3] = test system: caspase-3 and cytochrome-C release; assay: Caspase-3 and cytochrome-C release by western analysis and densitometry; details: control (sham-transfected) cells
Procedure: In order to determine a dose-response relationship between the concentration of TNF-α or FasL and apoptosis, western analysis was used to quantitate release of both caspase-3 (FIG. 9) and cytochrome-C (FIG. 10).
Immunoblots for the measurement of cytochrome-C and caspase-3 were carried out after incubation of cells with TNF-α (10 ng/ml) or FasL (1 ng/ml) for 48 hours. Cells were extracted with a buffer (20 mM Hepes pH 7.5, 10 mM KCl, 1.5 mM MgCl2, 5 mM EDTA, 5 mM DTT, 2 mM phenylmethylsulfonylfluoride, 1% NonidetP40, 0.5% sodium deoxycholate, 0.1% SDS, 2 μg/ml leupeptin, 2 μg/ml aprotinin, 0.5 μg/ml benzamindine, and 250 mM sucrose) on ice for 30 minutes. After centrifugation for 10 minutes at 10,000×g, the supernatant was used for western analysis with an antibody for cytochrome-C (Pharmingen, San Diego, Calif.). For assessment of caspase-3, samples were similarly processed in addition to passage through a 21-g needle prior to centrifugation. The western analysis was performed with a rabbit polyclonal IgG antibody to caspase-3 (Santa Cruz, Calif.) raises against an epitope corresponding to amino acids 1–277, representing the full-length precursor form of CPP-32 (caspase-3). For both caspase-3 and cytochrome-C, bands were quantified with densitometric analysis.

N-SMase = assay: TNF-α and Fas ligand induced N-SMase activity in WT and mutant cells; details: for N-SMase activity under cytokine stimulation: sham-transfected cells stimulated with TNF-α and Fas-L, basal 2.7
Procedure: FIGS. 4A–4B depict the effects of incubation with TNF-α (FIG. 4A) and Fas ligand (FIG. 4B) over time on the activity of N-SMase in mutant and WT cells. Confluent cultures of WT (MG-63) and mutant (CC) cells were incubated with serum free medium with or without TNF-α ([…]) or Fas ligand (1 ng/ml). At the indicated intervals, cells were harvested, centrifuged, and lysed in buffer containing 0.1% Triton™ X-100, 25 mM Tris (pH 7.4), 5 mM EDTA, 1 mM phenylmethylsulfonyl fluoride (PMSF), and 2 μg each of chymostatin, leupeptin, antipain, and pepstatin A. 100 μl of a reaction mixture containing 50 mM Tris (pH 7.4), 5 mM MgCl2, 0.05% Triton™ X-100, 5 mM dithiothreitol (DTT) and 10 nmol [^14C] sphingomyelin (100,000 cpm) was added to 5–10 μl of cell lysate (100 μg protein). The basal activity of N-SMase was 2.7±0.1 nmol/mg protein/hr in MG63 cells and 0.67±0.1 nmol/mg protein/hr in CC cells. These levels were defined as 100% activity. Error bars indicate ±S.D. (N=3).
Tumor necrosis factor alpha (TNF-α) is known to induce programmed cell death through stimulation of sphingomyelinase activity and generation of ceramide. This example describes the ability of the ribozyme directed against N-SMase to inhibit this pathway. The effects of incubation with TNF-α and Fas ligand over time on the activity of N-SMase in mutant and WT cells are shown in FIGS. 4A and 4B, respectively. Confluent cultures of WT (MG-63) and mutant (CC) cells were incubated with serum free medium with or without TNF-α ([…]) or Fas ligand (1 ng/ml), and the activity of N-SMase was determined by measuring the cleavage of [^14C]sphingomyelin. At 0, 10, 20, 30, 40, 50, and 60 minutes, cells were harvested, centrifuged, and lysed in buffer containing 0.1% Triton™ X-100, 25 mM Tris (pH 7.4), 5 mM EDTA, 1 mM phenylmethylsulfonyl fluoride (PMSF), and 2 μg each of chymostatin, leupeptin, antipain, and pepstatin A. 100 μl of a reaction mixture containing 50 mM Tris (pH 7.4), 5 mM MgCl2, 0.05% Triton™ X-100, 5 mM dithiothreitol (DTT) and 10 nmol [^14C]sphingomyelin (100,000 cpm) was added to 5–10 μl of cell lysate (100 μg protein). The basal activity of N-SMase was 2.7±0.1 nmol/mg protein/hr in MG63 cells and 0.67±0.1 nmol/mg protein/hr in CC cells. These levels were defined as 100% activity.

MG-63 cells [4] = assay: Cell viability by trypan blue staining; details: control cells, TNF-α in various concentrations, 24 hours
Procedure: FIG. 8 depicts the effect of TNF-α on viability of wild type, ribozyme transfected and wild type/mock transfected cells. Cells ([…]) were seeded in 96 well sterile plastic trays. Upon confluence medium was replaced with serum free minimum essential medium and TNF-α (20 ng/ml). After incubation for 24 h at 37° C., viability of cells were determined by Trypan blue staining. The results represent ±S.D. of three experiments.
The population of viable cells was determined using trypan blue staining. Cells (10^4) were seeded in 96 well plates. Twenty-four hours later, the media was replaced with serum-free MEM, and TNF-α in various concentrations was added. After incubation for 24 hours at 37° C., the cells were trypsinized, and viable cells were counted after staining with trypan blue. Values were compared to the original cell count (10^4) and expressed as a percentage.

Molecule | Increase in ceramide production [1] | Increase in apoptosis assessed by DAPI staining (MG-63 cells [2]) | Dose-response of caspase-3 and cytochrome-C release [3] | N-SMase activity under cytokine stimulation (N-SMase) [nmol/mg protein/hr] | Increase in apoptosis compared to untreated cells (MG-63 cells [2]) | Increase in apoptosis compared to untreated cells (MG-63 cells [2]; listed as C2-ceramide) | DAPI staining (MG-63 cells [2]; control-transfected cells, TNF-α 20 ng/ml for 24 hours, compared to untransfected cells) [%] | Peak N-SMase activity relative to unstimulated cells (N-SMase; control transfected clones, 10 minutes after addition of TNF-α) [%] | Decline in population of viable cells (MG-63 cells [4])
Fas ligand: ligand for Fas/Apo-1 (CD95), used as apoptosis agonist [reference compound] | about 2 fold | about 4 fold | linear dose-response relationship | 4.0 |  |  |  |  | 
CCCCCCCCCCCCC/C=C/[C@@H](O)[C@H](CO)NC(C)=O [C2 ceramide] |  |  |  |  | about 2.5 fold | greater than two-fold increase |  |  | 
Tumor necrosis factor alpha [TNF-α, reference compound] | about 2 fold | about 4 fold | linear dose-response relationship | 4.0 |  |  | 490 | 140 | prompt decline
